Consider 31 compounds from BindingDB's records for PubMed 17827 (1977).

Where “and” joins values, the source holds several entries; their conditions need not be identical. Identical values can stand only once.

In this assay the target is T1, Alpha-1A adrenergic receptor (Rattus norvegicus, UniProt P43140).
T1 sequence (P43140 whole entry): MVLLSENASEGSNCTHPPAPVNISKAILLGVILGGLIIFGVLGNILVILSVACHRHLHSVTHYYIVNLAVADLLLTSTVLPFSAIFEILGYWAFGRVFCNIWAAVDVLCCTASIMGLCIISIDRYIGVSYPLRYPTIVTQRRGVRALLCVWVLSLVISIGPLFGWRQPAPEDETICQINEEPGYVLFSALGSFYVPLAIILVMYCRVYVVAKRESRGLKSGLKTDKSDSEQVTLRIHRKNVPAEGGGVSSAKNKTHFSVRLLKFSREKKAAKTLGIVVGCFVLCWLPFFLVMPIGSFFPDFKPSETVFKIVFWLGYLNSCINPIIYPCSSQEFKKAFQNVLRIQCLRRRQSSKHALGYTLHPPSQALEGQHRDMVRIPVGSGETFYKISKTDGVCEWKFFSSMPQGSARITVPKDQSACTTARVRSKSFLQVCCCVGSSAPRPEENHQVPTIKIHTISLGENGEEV
Take `NCCc1ccc(O)cc1`: the Ki was 5.9 µM and 23 µM.
In the case of `CC(C)NC[C@@H](O)c1ccc(O)c(O)c1`, the Ki is 38 µM and > 70 µM.
The same measure for `CN(C)CCC=C1c2ccccc2CCc2ccccc21`: 0.53 µM; for `CC[C@@H](CO)NC(=O)[C@@H]1C=C2c3cccc4c3c(cn4C)C[C@H]2N(C)C1`: 4.7 µM and 1.9 µM; for `CN1C2CCC1CC(OC(c1ccccc1)c1ccccc1)C2` (stereo unspecified): 0.42 µM and 0.047 µM.
As for `NCC(O)c1ccc(O)cc1` (racemic) [Octopamine,(+/-)], the Ki was 1.56 µM and 11 µM.
Take `CNC(=S)NCCCCc1cnc[nH]1` [1-[4-(1H-imidazol-5-yl)butyl]-3-methylthiourea]: the Ki is 1.03 µM and 1.9 µM.
Regarding `CN1CC(C(=O)N[C@]2(C)O[C@@]3(O)C4CCCN4C(=O)[C@H](Cc4ccccc4)N3C2=O)CC2c3cccc4[nH]cc(c34)CC21` (stereo partly drawn) [7-Methyl-4,6,6a,7,8,9,10,10a-octahydro-indolo[4,3-fg]quinoline-9-carboxylic acid ((2R,5S,10bS)-5-benzyl-10b-hydroxy-2-methyl-3,6-dioxo-octahydro-oxazolo[3,2-a]pyrrolo[2,1-c]pyrazin-2-yl)-amide], the Ki is 0.0024 µM and 0.0035 µM.
`CN1C[C@H](C(=O)N[C@]2(C)O[C@@]3(O)[C@@H]4CCCN4C(=O)[C@H](Cc4ccccc4)N3C2=O)C=C2c3cccc4[nH]cc(c34)C[C@H]21` [12'-hydroxy-2'-methyl-5'alpha-(phenylmethyl)ergotaman-3',6',18-trione] yielded a Ki of 0.012 µM.
For `N[C@H]1C[C@@H]1c1ccccc1` [(1S,2R)-(+)-2-phenylcyclopropylamine] the value was 0.94 µM and 7 µM.
Turning to `CCN(CC)C(=O)[C@@H]1C=C2c3cccc4[nH]cc(c34)C[C@H]2N(C)C1` [(4R,7R)-N,N-diethyl-6-methyl-6,11-diazatetracyclo[7.6.1.0^{2,7}.0^{12,16}]hexadeca-1(16),2,9,12,14-pentaene-4-carboxamide], the affinity, expressed as Ki, was 0.22 µM.
Take `CC(C)C[C@H]1C(=O)N2CCCC2[C@]2(O)O[C@](NC(=O)[C@@H]3C=C4c5cccc6[nH]cc(c56)CC4N(C)C3)(C(C)C)C(=O)N12` (stereo partly drawn) [ALPHA-ERGOCRYPTINE]: the Ki was 0.008 µM and 0.009 µM.
As for `CN1CCc2cccc3c2[C@H]1Cc1ccc(O)c(O)c1-3` [APOKYN], the Ki is 0.95 µM and 2.3 µM.
The same measure for `CC(C)C[C@H]1C(=O)N2CCC[C@H]2[C@]2(O)O[C@](NC(=O)[C@@H]3C=C4c5cccc6[nH]c(Br)c(c56)C[C@H]4N(C)C3)(C(C)C)C(=O)N12` [Bromocriptine+ (GTP+)]: 0.009 µM and 0.016 µM; for `COc1cc2c3cc1Oc1cc(ccc1O)C[C@H]1c4c(cc(OC)c(O)c4Oc4ccc(cc4)C[C@@H]3N(C)CC2)CC[N+]1(C)C` [CAS_57-94-3]: > 60 µM and 6.9 µM.
Turning to `CC(CO)NC(=O)C1C=C2c3cccc4[nH]cc(c34)CC2N(C)C1` (stereo unspecified) [CAS_60-79-7], the Ki is 1.4 µM and 1.8 µM.
For `C[C@@H](N)Cc1ccc(O)cc1` [CAS_103-86-6] the value was 5 µM and 39 µM; for `c1ccc2c(c1)OCC(CN1CCN(CC3COc4ccccc4O3)CC1)O2` (stereo unspecified) [CAS_7762-32-5], 0.1 µM and 0.019 µM.
For `CC(C)C1(NC(=O)C2CC3c4cccc5[nH]cc(c45)CC3N(C)C2)OC2(O)C3CCCN3C(=O)C(Cc3ccccc3)N2C1=O` (stereo unspecified) [Dihydroergocristine] the value was 0.01 µM and 0.0024 µM; for `CC(C)[C@H]1C(=O)N2CCC[C@H]2[C@]2(O)O[C@](NC(=O)[C@@H]3C=C4c5cccc6[nH]cc(c56)C[C@H]4N(C)C3)(C(C)C)C(=O)N12` [ERGOCORNINE], 0.011 µM and 0.01 µM.
Take `C#CCN(C)Cc1ccccc1` [N-benzyl-N-methylprop-2-yn-1-amine]: the inhibitory constant (Ki) was 14 µM and > 70 µM.
For `NNc1nncc2ccccc12` [NSC_3637], the Ki is 7.7 µM and 52 µM.
Consider `N=c1nc(N2CCCCC2)cc(N)n1O` [NSC_4201], for which the Ki was > 60 µM and 29 µM.
For `OC(CCN1CCCCC1)(c1ccccc1)C1CCCCC1` (stereo unspecified) [NSC_5572], the inhibition constant Ki is 5 µM and 18 µM.
`ClCCN(Cc1ccccc1)Cc1ccccc1` [NSC_5820]: the Ki is 0.27 µM and 0.083 µM.
For `CC(C)C[C@H]1C(=O)N2CCC[C@H]2[C@]2(O)O[C@](NC(=O)[C@@H]3C[C@@H]4c5cccc6[nH]cc(c56)C[C@H]4N(C)C3)(C(C)C)C(=O)N12` [NSC_159729] the value was 0.007 µM and 0.0024 µM.
Regarding `CC(C)C1C(=O)N2CCCC2C2(O)OC(NC(=O)C3CC4c5cccc6[nH]cc(c56)CC4N(C)C3)(C(C)C)C(=O)N12` (stereo unspecified) [NSC_168871], the Ki was 0.009 µM and 0.0037 µM.
On to `CC(C)[C@@]1(NC(=O)[C@@H]2C=C3c4cccc5[nH]cc(c45)C[C@H]3N(C)C2)O[C@@]2(O)[C@@H]3CCCN3C(=O)[C@H](Cc3ccccc3)N2C1=O` [SMR000058447], for which the Ki was 0.018 µM and 0.0063 µM.
As for `CCCCCC(C)N` (stereo unspecified) [Tuaminoheptane], the Ki was 7.1 µM and 68 µM.
Regarding `NCCc1c[nH]c2ccc(O)cc12` [[3H]-5-HT], the Ki was 18 µM and 23 µM.
Take `C[C@H](N)Cc1ccccc1` [beta-aminopropylbenzene]: the Ki was 1.6 µM and 10 µM and 2.2 µM and 12 µM.
